In one experiment the test system is mammary gland tumor. Briefly: Tumor model: mammary gland tumor. The format is in vivo, mice. Conditions: mammary gland tumor (FIG. 22A, 23A). The source says:
(§1) FIGS. 23A-H is a set of curves showing the tumor growth of mice treated with PBS (Control, circles) or guanabenz (GBZ, triangles) in different tumor models: such as mammary gland tumor (FIG. 23A), hepatocellular carcinoma (FIG. 23B), T cell lymphoma (FIG. 23C), lung cancer (FIG. 23D), myeloma (FIG. 23E), mammary adenocarcinoma (FIG. 23F), renal cancer (FIG. 23G) and fibrosarcoma (FIG. 23H).

In experiment [1] the test system is immune-resistant autochthonous melanoma tumors (TiRP). The experiment can be described thus: TiRP melanoma with adoptive cell transfer (ACT) of P1A-specific CD8+T cells. It counts as in vivo, TiRP mice. The conditions noted are these: 5 mg/kg. An excerpt:
TiRP mice have been created by crossing Ink4a/Are^flox/flox mice with mice carrying a transgenic construct controlled by the tyrosinase promoter and driving the expression of H-Ras ^12V and Trapl a which encodes a MAGE-type tumor antigen P1A; the promoter is separated from the coding region by a stop cassette made of a floxed self-deleting CreER (Huijbers et al., 2006, Cancer Res 66, 3278-3286). Those mice were backcrossed to a B10.D2 background and bred to homozygosity. TCRP1A mice heterozygous for the H-2Ld/P1A35-43-specific TCR transgene were kept on the B10.D2;Rag1^−/− background (Shanker et al., 2004, J Immunol 172, 5069-5077). BALB/c mice were used in tumor transplantation experiments. TiRP-derived T429.11 transplanted melanoma model: T429.11 clone was derived from an induced Amela TiRP tumor referred to as T429. It was cloned from the T429 induced melanoma primary tumor line. Two million of T429.11 tumor cells were injected subcutaneously into recipient mice for tumor establishment (Zhu et al., 2017, Nat Commun. 10; 8(1):1404). Adra2a tm1Bkk mice (Strain Name: B6.129-Adra2a tm1Bkk /J, # 004367) were obtained from Jackson Laboratory (Bar Harbor, Me., USA).
A fresh solution of 40H-Tamoxifen was prepared by dissolving 40H-Tamoxifen (Imaginechem®) in 100% ethanol and mineral oil (ratio 1:9) followed by 30 min sonication, and injected subcutaneously (2 mg/200 uL per mouse) in the neck area of gender-matched 7 weeks old TiRP mice. Tumor appearance was monitored daily and tumors were measured three times/week. Tumor volume (in mm^3) was calculated by the following formula: Volume=width^2×length/2.
For the adoptive cell transfer (ACT), P1A-specific (TCRP1A) CD8+T cells were isolated from spleens and lymph nodes of TCRP1A mice as described hereinabove, and stimulated in vitro by co-culture with irradiated (10,000 rads) L1210.P1A.B7-1 cells (Gajewski et al., 1995, J Immunol 154, 5637-5648) at 1:2 ratio (0.5×10^5 CD8+T cells and 10^5 L1210.P1A.B7-1 cells per well in 48-well plates) in IMDM (GIBCO®) containing 10% fetal bovine serum supplemented with L-arginine (0.55 mM, Merck®), L-asparagine (0.24 mM, Merck®), glutamine (1.5 mM, Merck®), beta-mercaptoethanol (50 μM, Sigma Aldrich®), 50 U mL^−1 penicillin and […] mL^−1 streptomycin (Life Technologies®). Four days later, TCRP1A CD8+T cells were purified on a Lymphoprep gradient (StemCell®) and 10^7 living cells were injected intravenously in 200 μL PBS in TiRP-tumor bearing mice on the day of randomization.
TiRP-tumor bearing mice received adoptive cell transfer (ACT) of 10^7 P1A-specific activated CD8+T cells and daily injections of vehicle control, clonidine (5 mg/kg, i.p.), or clonidine (5 mg/kg, i.p.) combined with phentolamine (5 mg/kg, i.p.), when the tumor size was around 500 mm^3, until the day of sacrifice. Tumor size was monitored every 2 days. Mice were sacrificed when the tumor in control group reached around 2,000 mm^3.
TiRP-tumor bearing mice received adoptive cell transfer (ACT) of 10^7 of P1A-specific activated CD8+T cells. Daily injections of 5 mg/kg i.p. of romifidine or clonidine were thus administered from the day of the ACT, when the tumor size was around 500 mm^3, until the day of sacrifice. As shown on FIGS. 5A-B, following romifidine or clonidine administration, tumor infiltration of CD8+T cells was increased. […]

Experiment [2] relates to human LS411N ovarian cancer. The experiment can be described thus: LS411N xenograft with adoptive transfer of allogeneic human PBMC. It counts as in vivo. Conditions: human allogenic PBMC transferred at tumor size 100 mm^3. As for the experimental part: Adoptive transfer of human PBMC was performed when tumor size reaches 100 mm^3.
A general note: Xenograft models place foreign cells or tissue in a host animal.

The test system of a further experiment is prostate cancer. Briefly: Xenograft model of prostate cancer in NSG mice treated with PBMC. It counts as in vivo.
The next experiment has as its system fibrosarcoma. The experiment can be described thus: Tumor model: fibrosarcoma. Conditions: fibrosarcoma (FIG. 22H, 23H). The format is in vivo, mice.
Description: as §1

In a further experiment the test system is mammary adenocarcinoma. The experiment can be described thus: Tumor model: mammary adenocarcinoma. It counts as in vivo, mice. Conditions: mammary adenocarcinoma (FIG. 22F, 23F).
Description: as §1

The next experiment concerns CT26 colon carcinomas. Briefly: CT26 colon carcinoma model, daily i.p. treatment, tumor volume. The conditions noted are these: CT26 in BALB/c mice; 5 mg/kg, i.p. daily from tumor size around 50 mm^3 until sacrifice. It counts as in vivo, BALB/c mice. As for the experimental part: Mice received a daily intra-peritoneal injection of guanabenz (5 mg/kg) or vehicle (PBS) from the day of randomization (and the day of ACT when applicable) until the day of sacrifice. For the co-administration of adrenergic receptor agonist and antagonist, BALB/c mice bearing CT26 colon carcinomas received daily injections of vehicle control, guanabenz (5 mg/kg, i.p.), or guanabenz (5 mg/kg, i.p.) plus yohimbine (10 mg/kg, i.p.), when the tumor size was around 50 mm^3, until the day of sacrifice.
[…] mice were injected subcutaneously with 2×10^6 CT26 colon tumor cells at an age of 6 to 8 weeks. […] For evaluation of yohimbine on the effect of clonidine and guanabenz, the mice were randomized into different groups when tumors size arrived around 100 mm^3 and received daily injections of guanabenz (5 mg/kg, i.p.), yohimbine (10 mg/kg), a mix of guanabenz (5 mg/kg, i.p.) and yohimbine (10 mg/kg, i.p.), clonidine (5 mg/kg, i.p.), a mix of clonidine (5 mg/kg, i.p.) and yohimbine (10 mg/kg, i.p.) or vehicle control. Tumor size was measured every 2 days and mice were sacrificed when the tumor in control group reached 1,000 mm^3.

The next experiment has as its system lung cancer. The experiment can be described thus: Tumor model: lung cancer. The format is in vivo, mice. The conditions noted are these: lung cancer (FIG. 22D, 23D).
Description: as §1

“Also recorded” adds a separate entry of the source.

As for `Clc1cccc(Cl)c1N=C1NCCN1` [clonidine], the tumor growth entry was “strong tumor inhibition” in the experiment on mammary gland tumor; “significant tumor inhibition” in experiment [2]; “strong tumor inhibition” in the experiment on prostate cancer; “strong tumor inhibition” in the experiment on fibrosarcoma; “strong tumor inhibition” with mammary adenocarcinoma; “strong tumor inhibition” in the experiment with lung cancer. Also, in experiment [1] (TiRP mice with ACT, 5 mg/kg i.p. daily from day of ACT, tumor size around 500 mm^3), the “tumor infiltration of CD8+T cells (%CD8+T cells among total CD45+T cells)” value is listed as “increase of tumor infiltration of CD8+T cells; also recorded: increased”. The “tumor growth, combined with ACT” value in experiment [1] (TiRP mice, ACT of 10^7 P1A-specific CD8+T cells, 5 mg/kg i.p. daily) is “strongly sensitized immune-resistant autochthonous melanoma tumors (TiRP) to adoptive cell transfer (ACT); also recorded: efficiently control the growth; also recorded: inhibited the tumor growth”. The “tumor growth (tumor volume)” value in the experiment on CT26 colon carcinomas is recorded as “promotes a decrease of the tumor volume; also recorded: strongly inhibited CT26 tumor growth”.

Source of the values: patent US20230165836A1, “ALPHA-2 ADRENERGIC RECEPTOR AGONISTS FOR THE TREATMENT OF CANCER” (UNIVERSITÉ CATHOLIQUE DE LOUVAIN, priority 2020, published 2023).
